Structures can show the parent of a compound that is named as a salt.
Experiments:
[1] = target: T1, proMMP9(20-445;ΔFnII) (SEQ ID NO:6) (Homo sapiens, UniProt P14780, DEL216-390); assay: ThermoFluor with proMMP9(20-445;ΔFnII); settings: read-out: proMMP9(20-445; ΔFnII) (SEQ ID NO: 6) binding
T1 construct: start methionine (N); made in house; host or cells: E. coli BL21(DE3) RIL
T1 sequence (P14780 with tags, fused parts or gaps DEL216-390): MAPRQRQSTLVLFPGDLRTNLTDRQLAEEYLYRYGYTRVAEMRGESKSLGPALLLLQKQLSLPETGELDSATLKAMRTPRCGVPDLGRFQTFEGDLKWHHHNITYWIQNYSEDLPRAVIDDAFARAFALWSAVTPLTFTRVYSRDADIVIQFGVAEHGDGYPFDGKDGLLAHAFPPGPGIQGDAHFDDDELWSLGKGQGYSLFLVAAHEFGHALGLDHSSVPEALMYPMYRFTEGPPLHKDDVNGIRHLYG
Description: (§1) The ThermoFluor® (TF) assay is a 384-well plate-based binding assay that measures thermal stability of proteins (Biomol Screen 2001, 6, 429-40; Biochemistry 2005, 44, 5258-66). The experiments were carried out using instruments available from Johnson & Johnson Pharmaceutical Research & Development, LLC. TF dye used in all experiments was […] (1,8-ANS) (Invitrogen: A-47).
(§2) Compounds were arranged in a pre-dispensed plate (Greiner Bio-one: 781280), wherein compounds were serially diluted in 100% DMSO across 11 columns within a series. Columns 12 and 24 were used as DMSO reference and contained no compound. For multiple compound concentration-response experiments, the compound aliquots (50 nL) were robotically predispensed directly into black 384-well polypropylene PCR microplates (Abgene: TF-0384/k) using a Cartesian Hummingbird liquid handler (DigiLab, Holliston, Mass.). Following compound dispense, protein and dye solutions were added to achieve the final assay volume of 3 μL. The assay solutions were overlayed with 1 μL of silicone oil (Fluka, type DC 200: 85411) to prevent evaporation.
(§3) Assay plates were robotically loaded onto a thermostatically controlled PCR-type thermal block and then heated from 40 to 90° C. at a ramp-rate of 1° C./min for all experiments. Fluorescence was measured by continuous illumination with UV light (Hamamatsu LC6) supplied via fiber optics and filtered through a band-pass filter (380-400 nm; >6 OD cutoff). Fluorescence emission of the entire 384-well plate was detected by measuring light intensity using a CCD camera (Sensys, Roper Scientific) filtered to detect 500±25 nm, resulting in simultaneous and independent readings of all 384 wells. A single image with 20-sec exposure time was collected at each temperature, and the sum of the pixel intensity in a given area of the assay plate was recorded vs temperature and fit to standard equations to yield the Tm (J Biomol Screen 2001, 6, 429-40).
(§4) Thermodynamic parameters necessary for fitting compound binding for each proMMP were estimated by differential scanning calorimetry (DSC) and from ThermoFluor® data. The heat capacity of unfolding for each protein was estimated from the molecular weight and from ThermoFluor® dosing data.
ThermoFluor® with proMMP9(20-445;ΔFnII) (SEQ ID NO:6)
The protein sample preparations included a desalting buffer exchange step via a PD-10 gravity column (GE Healthcare). The desalting buffer exchange was performed prior to diluting the protein to the final assay concentration of 2.8 μM proMMP9(20-445;ΔFnII) (SEQ ID NO:6). The concentration of proMMP9(20-445;ΔFnII) (SEQ ID NO:6) was determined spectrophotometrically based on a calculated extinction coefficient of ε280=39880 M^−1cm^−1, a calculated molecular weight of 28.2 kDa, and calculated pI of 5.5. ThermoFluor® reference conditions were define as follows: 80 μg/mL (2.8 μM) proMMP9(20-445;ΔFnII) (SEQ ID NO:6), 50 μM 1,8-ANS, pH 7.0 Buffer (50 mM HEPES pH 7.0, 100 mM NaCl, 0.001% Tween-20, 2.5 mM MgCl2, 300 μM CaCl2). The thermodynamic parameters for proMMP9(20-445;ΔFnII) (SEQ ID NO:6) are as follows: Tm (° C.)=72 (+/−0.1), ΔUH(Tm) (cal mol^−1)=160000(+/−5000), ΔUS(Tm) (cal mol^−1 K^−1)=434, ΔUCp (cal mol^−1 K^−1)=2400.

[2] = target: T2, proMMP9(67-444;ΔFnII) (SEQ ID NO:5) (Homo sapiens, UniProt P14780, DEL216-390); assay: ThermoFluor with proMMP9(67-444;ΔFnII); settings: read-out: proMMP9(67-444; ΔFnII) (SEQ ID NO: 5) binding
T2 construct: start methionine (N); made in house; host or cells: E. coli BL21(DE3) RIL
T2 sequence (P14780 with tags, fused parts or gaps DEL216-390): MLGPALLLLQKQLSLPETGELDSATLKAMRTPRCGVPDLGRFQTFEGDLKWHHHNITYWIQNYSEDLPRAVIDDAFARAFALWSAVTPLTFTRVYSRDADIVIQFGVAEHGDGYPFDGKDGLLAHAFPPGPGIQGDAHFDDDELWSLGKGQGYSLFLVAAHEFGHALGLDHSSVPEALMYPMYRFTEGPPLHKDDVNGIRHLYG
Description: as §1, §2, §3, §4
ThermoFluor® with proMMP9(67-444;ΔFnII) (SEQ ID NO:5)
The protein sample preparations had to include a desalting buffer exchange step via a PD-10 gravity column (GE Healthcare). The desalting buffer exchange was performed prior to diluting the protein to the final assay concentration of 3.5 μM proMMP9(67-444;ΔFnII) (SEQ ID NO:5). The concentration of proMMP9(67-444;ΔFnII) (SEQ ID NO:5) was determined spectrophotometrically based on a calculated extinction coefficient of ε280=33900 M^−1cm^−1, a calculated molecular weight of 22.6 kDa, and calculated pI of 5.20. ThermoFluor® reference conditions were defined as follows: 80 μg/mL (3.5 μM) proMMP9(67-444;ΔFnII) (SEQ ID NO:5), 50 μM 1,8-ANS, pH 7.0 Buffer (50 mM HEPES pH 7.0, 100 mM NaCl, 0.001% Tween-20, 2.5 mM MgCl2, 300 μM CaCl2). The thermodynamic parameters for proMMP9(67-444;ΔFnII) (SEQ ID NO:5) are as follows: Tm (° C.)=63 (+/−0.1), ΔUH(Tm) (cal mol^−1)=105000(+/−5000), ΔUS(Tm) (cal mol^−1 K^−1)=450, […].

[3] = target: T3, full-length proMMP9(1-707) (SEQ ID NO:1) (Homo sapiens, UniProt P14780, R574P); assay: proMMP9/MMP3 P126 Activation Assay; format: biochemical; settings: proMMP9(1-707) from HEK293 cells activated by catalytic MMP3
T3 construct: made in house; host or cells: HEK293 (proMMP9, secreted); E. coli (MMP3)
Description: proMMP9/MMP3 P126 Activation Assay
The reaction volume was 50 μL. […] Reactivity of residual MMP3 towards P-126 substrate was minimal under these conditions.

[4] = target: T4, proMMP13(1-268) (SEQ ID NO:7) (Homo sapiens, UniProt P45452); assay: ProMMP13/Plasmin P126 Activation Assay; format: biochemical; settings: proMMP13(1-268) activated by plasmin
T4 construct: 6×-histidine tag (C); made in house; host or cells: HEK293 (transient transfection, secreted)
Description: ProMMP13/Plasmin P126 Activation Assay
On the day of assay, proMMP13(1-268) (SEQ ID NO:7) purified from HEK293 cells and plasmin were diluted to 160 nM and 320 nM, respectively, in assay buffer. The reaction volume was 50 μL. […] The plate was sealed and incubated for 40 min at 37° C. […] Plasmin was not reactive towards P-126 substrate under these conditions.

T3 sequence (P14780 20-707 R574P): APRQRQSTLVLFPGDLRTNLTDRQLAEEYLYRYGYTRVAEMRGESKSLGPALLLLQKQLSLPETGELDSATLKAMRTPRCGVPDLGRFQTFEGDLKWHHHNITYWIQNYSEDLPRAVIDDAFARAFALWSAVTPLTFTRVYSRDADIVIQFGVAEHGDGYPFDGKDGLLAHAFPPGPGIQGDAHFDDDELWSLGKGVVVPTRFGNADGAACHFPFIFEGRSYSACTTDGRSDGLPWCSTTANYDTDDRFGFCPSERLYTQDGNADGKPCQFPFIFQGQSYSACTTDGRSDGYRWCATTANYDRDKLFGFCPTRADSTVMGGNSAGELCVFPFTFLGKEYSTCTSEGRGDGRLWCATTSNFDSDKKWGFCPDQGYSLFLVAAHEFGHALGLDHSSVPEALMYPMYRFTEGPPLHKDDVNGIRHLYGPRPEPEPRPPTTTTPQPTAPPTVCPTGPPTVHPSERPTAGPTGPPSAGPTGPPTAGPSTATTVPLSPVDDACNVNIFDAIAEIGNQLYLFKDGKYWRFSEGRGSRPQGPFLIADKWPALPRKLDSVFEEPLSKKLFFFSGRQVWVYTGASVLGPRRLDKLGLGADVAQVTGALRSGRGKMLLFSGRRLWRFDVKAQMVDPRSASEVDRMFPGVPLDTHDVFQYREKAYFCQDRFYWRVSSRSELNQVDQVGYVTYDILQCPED

`CCN1CC=C(c2ccc(-c3csc(Nc4cc(C(N)=O)ccc4OC(C)C)n3)cc2)CC1` [Example 18, 3-((4-(4-(1-Ethyl-1,2,3,6-tetrahydropyridin-4-yl)phenyl)thiazol-2-yl)amino)-4-isopropoxybenzamide.TFA] was tested, and the Kd [1] was 17 nM, the Kd [2] was 51 nM and the IC50 [3] was 25 nM. It also gave an IC50 [4] of 32 nM.

With `CC(C)Oc1ccc(S(N)(=O)=O)cc1Nc1nc(-c2ccc(OCCCN3CCOCC3)cc2)cs1` [Example 47, 4-isopropoxy-3-((4-(4-(3-morpholinopropoxy)phenyl)thiazol-2-yl)amino)benzenesulfonamide.TFA] the Kd [1] was 32 nM, the Kd [2] was 77 nM and the IC50 [3] was 76 nM. For the same compound, the IC50 [4] was 600 nM.

Work on `CC(C)Oc1ccc(S(N)(=O)=O)cc1Nc1nc(-c2ccc(CN3CCN(C(C)C)CC3)cc2)cs1` [Example 57, 4-isopropoxy-3-((4-(4-((4-isopropylpiperazin-1-yl)methyl)phenyl)thiazol-2-yl)amino)benzenesulfonamide.TFA] yielded an IC50 [3] of 150 nM and an IC50 [4] of 4000 nM.

In the case of `CC(C)Oc1ccc(S(N)(=O)=O)cc1Nc1nc(-c2ccc(C3CCN(C)CC3)cc2)cs1` [Example 25, 4-Isopropoxy-3-((4-(4-(1-methylpiperidin-4-yl)phenyl)thiazol-2-yl)amino)benzenesulfonamide.TFA], the Kd [1] is reported as 27 nM, the Kd [2] is reported as 30 nM and the IC50 [3] is reported as 69 nM.

In the case of `COc1ccncc1Nc1nc(-c2ccc(OCCN3CCC(F)CC3)cc2)cs1` [Example 35, 4-(4-(2-(4-fluoropiperidin-1-yl)ethoxy)phenyl)-N-(4-methoxypyridin-3-yl)thiazol-2-amine.TFA], the Kd [1] is reported as 4300 nM, the Kd [2] is reported as 1000 nM and the IC50 [3] is reported as 780 nM.

Work on `CC(C)Oc1ccc(S(N)(=O)=O)cc1Nc1nc(-c2ccc(CN3CCC(F)CC3)cc2)cs1` [Example 55, 3-((4-(4-((4-fluoropiperidin-1-yl)methyl)phenyl)thiazol-2-yl)amino)-4-isopropoxybenzenesulfonamide.TFA] yielded a Kd [1] of 30 nM, a Kd [2] of 53 nM and an IC50 [3] of 140 nM.

`COc1cc(C)c(C(N)=O)cc1Nc1nc(-c2ccc(OCCN3CCC(F)CC3)cc2)cs1` [Example 39, 5-((4-(4-(2-(4-fluoropiperidin-1-yl)ethoxy)phenyl)thiazol-2-yl)amino)-4-methoxy-2-methylbenzamide.TFA] gave a Kd [1] of 550 nM, a Kd [2] of 640 nM and an IC50 [3] of 720 nM.

In the case of `NS(=O)(=O)c1ccc(OC(F)(F)F)c(Nc2nc(-c3ccc(OCCN4CCC(F)(F)CC4)cc3)cs2)c1` [Example 33, 3-((4-(4-(2-(4,4-difluoropiperidin-1-yl)ethoxy)phenyl)thiazol-2-yl)amino)-4-(trifluoromethoxy)benzenesulfonamide.TFA], the Kd [1] is reported as 1300 nM, the Kd [2] is reported as 650 nM and the IC50 [3] is reported as 16000 nM.

For `COc1ccc(F)cc1Nc1nc(-c2ccc(CN3CCN(C(C)C)CC3)cc2)cs1` [Example 63, N-(5-fluoro-2-methoxyphenyl)-4-(4-((4-isopropylpiperazin-1-yl)methyl)phenyl)thiazol-2-amine.TFA], the Kd [1] was 4600 nM, the Kd [2] was 960 nM and the IC50 [3] was 250 nM.

In the case of `CCOc1ccncc1Nc1nc(-c2ccc(C3=CCN(C)CC3)cc2)cs1` [Example 21, N-(4-Ethoxypyridin-3-yl)-4-(4-(1-methyl-1,2,3,6-tetrahydropyridin-4-yl)phenyl)thiazol-2-amine], the Kd [1] is reported as 400 nM, the Kd [2] is reported as > 76000 nM and the IC50 [3] is reported as 57 nM.

`COc1ccc(F)cc1Nc1nc(-c2ccc(OCCN3CCOCC3)cc2)cs1` [Example 66, N-(5-fluoro-2-methoxyphenyl)-4-(4-(2-morpholinoethoxy)phenyl)thiazol-2-amine.TFA] was tested, and the Kd [1] was > 19000 nM, the Kd [2] was 2900 nM and the IC50 [3] was 1800 nM.

Compound `CC(C)Oc1ccc(C(N)=O)cc1Nc1nc(-c2ccc(C3=CCNCC3)cc2)cs1` [Example 16, 4-Isopropoxy-3-((4-(4-(1,2,3,6-tetrahydropyridin-4-yl)phenyl)thiazol-2-yl)amino)benzamide.TFA] has a Kd [1] of 14 nM, a Kd [2] of 33 nM and an IC50 [3] of 49 nM.

`CC(C)Oc1ccc(C(N)=O)cc1Nc1nc(-c2ccc(CN3CCC(F)CC3)cc2)cs1` [Example 54, 3-((4-(4-((4-fluoropiperidin-1-yl)methyl)phenyl)thiazol-2-yl)amino)-4-isopropoxybenzamide.TFA] gave a Kd [1] of 31 nM, a Kd [2] of 110 nM and an IC50 [3] of 95 nM.

For `NS(=O)(=O)c1ccc(OC(F)(F)F)c(Nc2nc(-c3ccc(OCCN4CCC(F)CC4)cc3)cs2)c1` [Example 41, 3-((4-(4-(2-(4-fluoropiperidin-1-yl)ethoxy)phenyl)thiazol-2-yl)amino)-4-(trifluoromethoxy)benzenesulfonamide.TFA], the Kd [1] was 330 nM, the Kd [2] was 180 nM and the IC50 [3] was 620 nM.

`NS(=O)(=O)c1ccc(OC(F)(F)F)c(Nc2nc(-c3ccc(OCCN4CCOCC4)cc3)cs2)c1` [Example 30, 3-((4-(4-(2-Morpholinoethoxy)phenyl)thiazol-2-yl)amino)-4-(trifluoromethoxy)benzenesulfonamide.TFA] was tested, and the Kd [1] was 1200 nM, the Kd [2] was 1300 nM and the IC50 [3] was 1100 nM.
